Data: patent US4091006A, “Esters of 3-hydroxyindone compounds” (priority 1975, dated 1978)

Legend:
[1] = tested on: Perennial rye grass, crabgrass, red root pigweed, mustard; assay: Preliminary Herbicide Seed Germination Test; conditions: each rated 1 (no injury) to 5 (no seedlings emerged)
[2] = tested on: adults and nymphal stages of the two-spotted mite; assay: Mite Foliage Spray Test; assay type: in vivo, Tetranychus urticae (Koch); set-up: key: 1: no mortality; 3: an approximately 50% mortality; 5: 100% mortality; conditions: 4 days
Source text: (§1) The test procedures were as follows:
(§2) Compositions were rated on the basis of percent kill with a rating of 1 indicating no mortality; 3 signifying an approximately 50% mortality and 5 indicating 100% mortality at the indicated dosage.

[3] = tested on: egg of the two-spotted mite; assay: Mite Ovicide Test; assay type: in vivo, Tetranychus urticae (Koch); set-up: key to Mite Ova rating: 1: no mortality; 3: an approximately 50% mortality; 5: 100% mortality; conditions: spray on eggs, 4 days
Source text: as §1
The plants were allowed to dry thoroughly.
as §2

[4] = rating/maximum 40: 100 and 1000 ppm, four species, 10-12 days
[5] = rating/maximum 20: 100 ppm only, four species
[6] = rating/maximum 15: 100 ppm only, crabgrass omitted
[7] = rating/maximum 30: 100 and 1000 ppm, crabgrass omitted

| Structure (SMILES) | Herbicide (total preemergence rating) [1, 4] | Mite Adult rating [2] | Mite Ova rating [3] | Herbicide (total preemergence rating) [1, 5] | Herbicide (total preemergence rating) [1, 6] | Herbicide (total preemergence rating) [1, 7] |
| --- | --- | --- | --- | --- | --- | --- |
| Cc1cc(C)c(C2=C(OC(=O)c3ccc(Cl)cc3Cl)c3ccccc3C2=O)c(C)c1 [3-(2,4-Dichlorobenzoyloxy)-2-(2',4',6'-trimethylphenyl)indone] | 32/40 | 5 (100% mortality) | 5 (100% mortality) |  |  |  |
| Cc1cc(C)c(C2=C(OC(=O)c3c(Cl)ccc(Cl)c3Cl)c3ccccc3C2=O)c(C)c1 [3-(2,3,6-Trichlorobenzoyloxy)-2-(2',4',6'-trimethylphenyl)indone] | 21/40 | 1 | 3 (an approximately 50% mortality) |  |  |  |
| Cc1cc(C)c(C2=C(OC(=O)Cl)c3ccccc3C2=O)c(C)c1 [2-(2',4',6'-Trimethylphenyl)-3-(chlorocarbonyloxy)indone] |  | 5 (100% mortality) | 5 (100% mortality) | 13/20 |  |  |
| COc1cccc(OC)c1C(=O)OC1=C(c2c(Cl)cccc2Cl)C(=O)c2ccccc21 [3-(2,6-Dimethoxybenzoyloxy)-2-(2',6'-dichlorophenyl)indone] |  | 1 | 1 |  | 12/15 |  |
| CCCC(C)C(=O)OC1=C(c2ccc(C)cc2C)C(=O)c2ccccc21 (stereo not drawn) [2-(2',4'-Dimethylphenyl)-3-(2-methylpentanoyloxy)indone] |  | 3 (an approximately 50% mortality) | 5 (100% mortality) | 14/20 |  |  |
| CCCC(C)C(=O)OC1=C(c2ccccc2Cl)C(=O)c2ccccc21 (stereo not drawn) [2-(2'-Chlorophenyl)-3-(2-methylpentanoyloxy)indone] |  | 5 (100% mortality) | 5 (100% mortality) | 4/20 |  |  |
| CCCCC(CC)C(=O)OC1=C(c2ccccc2OC)C(=O)c2ccccc21 (stereo not drawn) [3-(2-Ethylhexanoyloxy)-2-(2'-methoxyphenyl-indone] |  | 1 | 1 | 4/20 |  |  |
| CCCC(=O)OC1=C(c2c(C)cc(C)cc2C)C(=O)c2ccccc21 [2-(2',4',6'-Trimethylphenyl)-3-(butyryloxy)indone] |  | 5 (100% mortality) | 5 (100% mortality) |  | 15/15 |  |
| COc1cccc(OC)c1C(=O)OC1=C(c2c(C)cc(C)cc2C)C(=O)c2ccccc21 [3-(2,6-Dimethoxybenzoyloxy)-2-(2',4',6'-trimethylphenyl)indone] |  | 1 | 1 | 4/20 |  |  |
| O=C(OC1=C(c2c(Cl)cccc2Cl)C(=O)c2ccccc21)c1ccc([N+](=O)[O-])cc1 [3-(4-Nitrobenzoyloxy)-2-(2',6'-dichlorophenyl)indone] |  | 5 (100% mortality) | 5 (100% mortality) |  |  | 25/30 |
| CCCCCCCCCCCCCCCCCC(=O)OC1=C(c2ccccc2Cl)C(=O)c2ccccc21 [2-(2'-Chlorophenyl)-3-(stearoyloxy)indone] |  | 1 | 5 (100% mortality) | 4/20 |  |  |
| COc1ccccc1C1=C(OC(=O)C(C)(C)C)c2ccccc2C1=O [2-(2'-Methoxyphenyl)-3-(pivaloyloxy)indone] | 8/40 | 1 | 1 |  |  |  |
| CCC(CC)C(=O)OC1=C(c2ccc(C(C)C)cc2)C(=O)c2ccccc21 [3-(2-ethylbutanoyloxy)-2-(4'-isopropylphenyl)indone] |  | 1 | 1 | 4/20 |  |  |
| Cc1cc(C)c(C2=C(OC(=O)c3ccccc3C)c3ccccc3C2=O)c(C)c1 [3-(2-Methylbenzoyloxy)-2-(2',4',6'-trimethylphenyl)indone] |  | 5 (100% mortality) | 5 (100% mortality) |  |  | 19/30 |
